Test results: US9840495B2, “Oxindole derivatives carrying a piperidyl-substituted azetidinyl substituent and use thereof for treating vasopressine-related diseases” (AbbVie Deutschland GmbH & Co. KG, priority 2013, dated 2017)

Experiments:
[1] = target: human vasopressin V1a receptor (Homo sapiens, UniProt P37288); assay: Vasopressin V1a receptor binding assay (125I-AVP displacement, CHO-K1 membranes); settings: selectivity quotient, human V1a vs human V1b receptor binding
[2] = target: T1, human vasopressin V1b receptor (Homo sapiens, UniProt P47901); assay: biochemical
T1 sequence (P47901 1-424): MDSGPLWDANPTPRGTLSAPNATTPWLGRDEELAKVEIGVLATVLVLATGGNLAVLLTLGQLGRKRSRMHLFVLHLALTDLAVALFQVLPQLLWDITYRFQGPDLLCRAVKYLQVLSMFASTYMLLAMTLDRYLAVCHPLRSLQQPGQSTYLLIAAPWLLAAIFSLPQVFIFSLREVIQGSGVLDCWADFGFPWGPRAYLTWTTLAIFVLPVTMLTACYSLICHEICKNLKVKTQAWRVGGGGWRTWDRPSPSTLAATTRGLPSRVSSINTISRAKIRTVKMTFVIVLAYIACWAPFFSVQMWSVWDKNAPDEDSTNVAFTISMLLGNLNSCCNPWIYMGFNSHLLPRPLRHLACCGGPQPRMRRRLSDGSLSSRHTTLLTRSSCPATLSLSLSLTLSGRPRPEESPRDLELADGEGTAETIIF

Chain of human vasopressin V1a receptor (P37288 whole entry): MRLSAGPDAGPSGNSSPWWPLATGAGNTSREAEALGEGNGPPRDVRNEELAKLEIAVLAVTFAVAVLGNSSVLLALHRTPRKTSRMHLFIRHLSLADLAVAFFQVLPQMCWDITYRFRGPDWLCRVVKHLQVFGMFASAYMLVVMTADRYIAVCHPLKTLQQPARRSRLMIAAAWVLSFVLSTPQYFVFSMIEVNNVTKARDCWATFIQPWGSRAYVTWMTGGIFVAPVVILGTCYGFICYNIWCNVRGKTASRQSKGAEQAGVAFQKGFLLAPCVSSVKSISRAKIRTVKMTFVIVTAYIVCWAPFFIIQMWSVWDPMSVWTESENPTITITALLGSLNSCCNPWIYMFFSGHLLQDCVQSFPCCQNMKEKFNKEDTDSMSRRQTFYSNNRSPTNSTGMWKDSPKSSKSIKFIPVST

Ki(h-V1a)/Ki(h-V1b) [1]: ++ (25-75)
Ki [2]: < 1 nM
SMILES: COc1ccc(S(=O)(=O)N2C(=O)[C@@](NC(=O)N3CC(N4CCC(N(C)C5COC5)CC4)C3)(c3cc(OC)ccc3OC)c3cc(C#N)ccc32)c(OC)c1 [Example 46, (S)—N-(5-Cyano-3-(2,5-dimethoxyphenyl)-1-((2,4-dimethoxyphenyl)sulfonyl)-2-oxoindolin-3-yl)-3-(4-(methyl(oxetan-3-yl)amino)piperidin-1-yl)azetidine-1-carboxamide]
